Measured values taken from patent US10781224B2, “Bis(oxymethyl)phosphinic acid and biogenic metal salts thereof as regulators of plant growth and development” (priority 2016, dated 2020).

Tests used:
[1] = system: winter wheat (Vershin variety); assay: Winter wheat seed treatment with BHMPA salts: germinating power (length and mass of roots and sprouts); type: in vivo
Summary of the method: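 Seeds (50 per Petri dish on two layers of filter paper) soaked 1 h in BHMPA or its Ca, Mg, Na, Co, Mn, Cu or Zn salts at 1·10^−6-1·10^−12%, with water controls. Germination energy read on day 4, germination on day 8 (wheat) or day 7 (rice, corn), as % means of four replicates. Germinating power taken as root and sprout length plus wet and dry mass per 100 seedlings.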

rice (Diamant variety) = assay: Rice seed treatment with BHMPA salts: germination energy and germination rate; type: in vivo
Summary of the method: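 Corn, winter wheat and rice seeds (50 per dish, on filter paper) were soaked for 1 h in BHMPA or its metal salts at 1·10^−6-1·10^−12%, with water as control. Germination energy was read on day 4 and germination rate on day 8 for wheat and day 7 for rice and corn, following GOST 12038-84, as the mean of four replicates.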

[2] = comparative study, 1·10^−10% solution
[3] = rice seed treatment, solution 1 · 10^−9%
[4] = seed treatment, concentration 1 · 10^−6%
[5] = seed treatment, concentration 1 · 10^−7%
[6] = seed treatment, concentration 1 · 10^−8%
[7] = seed treatment, concentration 1 · 10^−9%
[8] = seed treatment, concentration 1 · 10^−10%
[9] = seed treatment, concentration 1 · 10^−11%
[10] = seed treatment, concentration 1 · 10^−12%

SMILES: O.O.O=P([O-])(CO)CO.O=P([O-])(CO)CO.[Co+2] [Co-salt, Cobalt BHMPA Salt]
- Length, root ([1]; 1·10^−6% solution): 6.0 cm
- Length, root, + % to control ([1]; 1·10^−6% solution): −5%
- Length, sprout ([1]; 1·10^−6% solution): 5.1 cm
- Length, sprout, + % to control ([1]; 1·10^−6% solution): −4%
- Mass, dry, root ([1]; 1·10^−6% solution): 0.43 g/100 plantlings
- Mass, dry, root, + % to control ([1]; 1·10^−6% solution): −6.5%
- Mass, dry, sprout ([1]; 1·10^−6% solution): 0.41 g/100 plantlings
- Mass, dry, sprout, + % to control ([1]; 1·10^−6% solution): −9%
- Mass, wet, root ([1]; 1·10^−6% solution): 2.99 g/100 plantlings
- Mass, wet, root, + % to control ([1]; 1·10^−6% solution): 3.5%
- Mass, wet, sprout ([1]; 1·10^−6% solution): 3.30 g/100 plantlings
- Mass, wet, sprout, + % to control ([1]; 1·10^−6% solution): −3.5%
- Length, root ([1]; 1·10^−7% solution): 6.3 cm
- Length, root, + % to control ([1]; 1·10^−7% solution): 0%
- Length, sprout ([1]; 1·10^−7% solution): 5.4 cm
- Length, sprout, + % to control ([1]; 1·10^−7% solution): 2%
- Mass, dry, root ([1]; 1·10^−7% solution): 0.50 g/100 plantlings
- Mass, dry, root, + % to control ([1]; 1·10^−7% solution): 9%
- Mass, dry, sprout ([1]; 1·10^−7% solution): 0.45 g/100 plantlings
- Mass, dry, sprout, + % to control ([1]; 1·10^−7% solution): 0%
- Mass, wet, root ([1]; 1·10^−7% solution): 3.06 g/100 plantlings
- Mass, wet, root, + % to control ([1]; 1·10^−7% solution): 6%
- Mass, wet, sprout ([1]; 1·10^−7% solution): 3.47 g/100 plantlings
- Mass, wet, sprout, + % to control ([1]; 1·10^−7% solution): 1.5%
- Length, root ([1]; 1·10^−8% solution): 6.4 cm
- Length, root, + % to control ([1]; 1·10^−8% solution): 1.6%
- Length, sprout ([1]; 1·10^−8% solution): 5.5 cm
- Length, sprout, + % to control ([1]; 1·10^−8% solution): 4%
- Mass, dry, root ([1]; 1·10^−8% solution): 0.54 g/100 plantlings
- Mass, dry, root, + % to control ([1]; 1·10^−8% solution): 17%
- Mass, dry, sprout ([1]; 1·10^−8% solution): 0.53 g/100 plantlings
- Mass, dry, sprout, + % to control ([1]; 1·10^−8% solution): 18%
- Mass, wet, root ([1]; 1·10^−8% solution): 3.29 g/100 plantlings
- Mass, wet, root, + % to control ([1]; 1·10^−8% solution): 14%
- Mass, wet, sprout ([1]; 1·10^−8% solution): 3.74 g/100 plantlings
- Mass, wet, sprout, + % to control ([1]; 1·10^−8% solution): 9%
- Length, root ([1]; 1·10^−9% solution): 6.5 cm
- Length, root, + % to control ([1]; 1·10^−9% solution): 3%
- Length, sprout ([1]; 1·10^−9% solution): 5.7 cm
- Length, sprout, + % to control ([1]; 1·10^−9% solution): 7.5%
- Mass, dry, root ([1]; 1·10^−9% solution): 0.55 g/100 plantlings
- Mass, dry, root, + % to control ([1]; 1·10^−9% solution): 19.5%
- Mass, dry, sprout ([1]; 1·10^−9% solution): 0.57 g/100 plantlings
- Mass, dry, sprout, + % to control ([1]; 1·10^−9% solution): 27%
- Mass, wet, root ([1]; 1·10^−9% solution): 3.35 g/100 plantlings
- Mass, wet, root, + % to control ([1]; 1·10^−9% solution): 16%
- Mass, wet, sprout ([1]; 1·10^−9% solution): 4.04 g/100 plantlings
- Mass, wet, sprout, + % to control ([1]; 1·10^−9% solution): 18%
- Length, root ([1]; 1·10^−10% solution): 6.6 cm
- Length, root, + % to control ([1]; 1·10^−10% solution): 5%
- Length, sprout ([1]; 1·10^−10% solution): 6.1 cm
- Length, sprout, + % to control ([1]; 1·10^−10% solution): 15%
- Mass, dry, root ([1]; 1·10^−10% solution): 0.56 g/100 plantlings
- Mass, dry, root, + % to control ([1]; 1·10^−10% solution): 22%
- Mass, dry, sprout ([1]; 1·10^−10% solution): 0.67 g/100 plantlings
- Mass, dry, sprout, + % to control ([1]; 1·10^−10% solution): 49%
- Mass, wet, root ([1]; 1·10^−10% solution): 3.57 g/100 plantlings
- Mass, wet, root, + % to control ([1]; 1·10^−10% solution): 23.5%
- Mass, wet, sprout ([1]; 1·10^−10% solution): 4.18 g/100 plantlings
- Mass, wet, sprout, + % to control ([1]; 1·10^−10% solution): 22%
- Length, root ([1]; 1·10^−11% solution): 6.5 cm
- Length, root, + % to control ([1]; 1·10^−11% solution): 3%
- Length, sprout ([1]; 1·10^−11% solution): 5.9 cm
- Length, sprout, + % to control ([1]; 1·10^−11% solution): 11%
- Mass, dry, root ([1]; 1·10^−11% solution): 0.54 g/100 plantlings
- Mass, dry, root, + % to control ([1]; 1·10^−11% solution): 17%
- Mass, dry, sprout ([1]; 1·10^−11% solution): 0.56 g/100 plantlings
- Mass, dry, sprout, + % to control ([1]; 1·10^−11% solution): 24%
- Mass, wet, root ([1]; 1·10^−11% solution): 3.33 g/100 plantlings
- Mass, wet, root, + % to control ([1]; 1·10^−11% solution): 15%
- Mass, wet, sprout ([1]; 1·10^−11% solution): 3.78 g/100 plantlings
- Mass, wet, sprout, + % to control ([1]; 1·10^−11% solution): 10.5%
- Length, root ([1]; 1·10^−12% solution): 6.2 cm
- Length, root, + % to control ([1]; 1·10^−12% solution): −1.5%
- Length, sprout ([1]; 1·10^−12% solution): 5.4 cm
- Length, sprout, + % to control ([1]; 1·10^−12% solution): 2%
- Mass, dry, root ([1]; 1·10^−12% solution): 0.52 g/100 plantlings
- Mass, dry, root, + % to control ([1]; 1·10^−12% solution): 13%
- Mass, dry, sprout ([1]; 1·10^−12% solution): 0.48 g/100 plantlings
- Mass, dry, sprout, + % to control ([1]; 1·10^−12% solution): 7%
- Mass, wet, root ([1]; 1·10^−12% solution): 3.06 g/100 plantlings
- Mass, wet, root, + % to control ([1]; 1·10^−12% solution): 6%
- Mass, wet, sprout ([1]; 1·10^−12% solution): 3.49 g/100 plantlings
- Mass, wet, sprout, + % to control ([1]; 1·10^−12% solution): 2%
- Length, root [1, 2]: 10.4 cm
- Length, root, + % to control [1, 2]: 20%
- Length, sprout [1, 2]: 7.4 cm
- Length, sprout, + % to control [1, 2]: 19%
- Mass, dry, root [1, 2]: 0.68 g/100 plantlings
- Mass, dry, root, + % to control [1, 2]: 10%
- Mass, dry, sprout [1, 2]: 0.55 g/100 plantlings
- Mass, dry, sprout, + % to control [1, 2]: 8%
- Mass, wet, root [1, 2]: 5.97 g/100 plantlings
- Mass, wet, root, + % to control [1, 2]: 65%
- Mass, wet, sprout [1, 2]: 5.16 g/100 plantlings
- Mass, wet, sprout, + % to control [1, 2]: 30%
- Germination energy, % (rice (Diamant variety); [3]): 87.5%
- Germination rate, % (rice (Diamant variety); [3]): 94.5%
- Germination energy (rice (Diamant variety); rice, 1·10^−9% solution): 86.3%
- Germination rate (rice (Diamant variety); rice, 1·10^−9% solution): 93.7%
- Germination energy (rice (Diamant variety); [4]): 80.7%
- Germination rate (rice (Diamant variety); [4]): 84.0%
- Germination energy (rice (Diamant variety); [5]): 83.0%
- Germination rate (rice (Diamant variety); [5]): 87.0%
- Germination energy (rice (Diamant variety); [6]): 84.0%
- Germination rate (rice (Diamant variety); [6]): 90.3%
- Germination energy (rice (Diamant variety); [7]): 86.3%
- Germination rate (rice (Diamant variety); [7]): 93.7%
- Germination energy (rice (Diamant variety); [8]): 85.7%
- Germination rate (rice (Diamant variety); [8]): 91.3%
- Germination energy (rice (Diamant variety); [9]): 84.0%
- Germination rate (rice (Diamant variety); [9]): 88.0%
- Germination energy (rice (Diamant variety); [10]): 81.3%
- Germination rate (rice (Diamant variety); [10]): 85.3%
